What was measured:
[1] = test system: mesenteric artery thrombosis; assay: Ferric chloride-induced mesenteric thrombosis in mice; type: in vivo, C57BL/6 mice; conditions: luteolin 35 μM/kg or aspirin 0.5 mM/kg i.p., 30 min before FeCl3
Description: A method reported in the literature was used to observe mesenteric artery thrombosis in mice ([Bonnard and […], 2015]). […] The mice were anesthetized by an intraperitoneal injection of pentobarbital (45 mg/kg). They were given an intraperitoneal injection of DMSO, luteolin, or aspirin. They were also given an orbital vein injection of 5 μg/kg rhodamine (Cat No. 83697-250 MG; Sigma-Aldrich, St. Louis, MO, United States) ([Bonnard and […], 2015]), respectively. The mesenteric vessels were exposed by opening the abdominal cavity, and small mesenteric arteries with a diameter of approximately 150-250 μm were selected under the microscope. […] During thrombosis, images were taken every 1 min for the first 10 min and every 5 min after 10 min using an MSHOT MD50 camera (Micro Shot Technology Ltd., Guangzhou, China) and an Olympus ix73 microscope (Olympus Corp., Shinjuku, Japan). […] The size of the thrombus formation was calculated using ImageJ software.

[2] = Tail bleeding in mice; type: in vivo, C57BL/6 mice; conditions: luteolin 35 μM/kg or aspirin i.p., 30 min after injection; vs DMSO
Description: The tail break hemorrhage experiment in mice was performed as previously reported, with slight modifications ([Liu et al., 2012]). […] Before the experiment, the mouse tails were immersed in saline for 3 min at 37°C. Then, 30 min after injection, the tails were quickly cut off using a surgical knife blade and placed in saline at 37°C. The cutting site was 5 mm from the end of the tail tip. The bleeding time of the broken tails was observed and recorded.

[3] = test system: NOXs; assay: NADPH oxidase (NOX) activity assay in platelet lysate; type: cell-based, human; conditions: convulxin (5 ng/mL)- and collagen (10 μg/mL)-induced; VAS2870 10 μM
Description: MDA, SOD, GPx, and NADPH oxidase activity were measured as previously described ([Krotz et al., 2002]; [Paul et al., 2019]; [Pan et al., 2021]). After incubation and activation, the reaction was stopped by adding 10 mM EGTA. The platelets were pelleted by centrifugation at 20,000 × g for 10 min at 4°C and resuspended in Tyrode’s buffer with 0.1% phosphatase and protease inhibitors (Cat No. 04906837001, Roche Applied Science, Penzberg, Germany; Cat No. P-8340, Sigma, St. Louis, MO, United States). The platelets were disrupted by passing them 10 times through a 29-gauge needle, followed by centrifugation at 2000 × g for 10 min at 4°C to separate the supernatant and precipitate. The detection of MDA, SOD, and GPx in the supernatant was performed according to the kit’s instructions for SOD (Cat No. BC0170, Solarbio Life Science, Beijing, China), MDA (Cat No. S0131S, Beyotime Institute of Biotechnology, Shanghai, China) and GPx (Cat No. S0056, Beyotime Institute of Biotechnology, Shanghai, China). In order to determine NADPH oxidase (NOX) activity, platelet lysate (12.5 μg) was incubated with 10 µM lucigenin and 0.5 mM NADPH at 37°C in the dark. The absorbance values were detected at 450 nm using a spectrophotometer Multiskan FC (ThermoFisher Scientific Inc., Waltham, MA, United States). Protein content was determined by the Bradford method.

[4] = test system: human washed platelets; assay: Platelet ROS release assay (DCFH-DA); type: cell-based; conditions: luteolin 25 μM, BAY61-3606 63 nM
Description: The assay was performed as previously reported with minor modifications ([Arthur et al., 2012]; [Ye et al., 2020]). Briefly, WPs (500 × 10^9/L) were labeled with 5 μM Fluo-3AM (Cat No. IF0150; Solarbio) or 10 μM DCFH-DA (Cat No. D6883; Sigma, St. Louis, MO, United States) at 37°C for 30 min protected from light. […] In addition, 1 mM CaCl2 and collagen or convulxin were added to start the reaction. […] A ROS probe via a fluorescent enzyme marker was added. O2 ^− and H2O2 were measured using 2 μM Amplex Red (Cat No. ST010; Beyotime Institute of Biotechnology, Shanghai, China) or 2 μM Dihydroethidium (DHE, Cat No. S0063; Beyotime Institute of Biotechnology, Shanghai, China). O2 ^− and H2O2 were analyzed using a Fluoroskan Ascent fluorometer (Thermo Fisher, Waltham, Massachusetts, United States).

SMILES: CC(=O)Oc1ccccc1C(=O)O [aspirin, reference compound]
- time of clot obstruction of blood vessels [1]: significantly prolong
- time of initial thrombus formation [1]: Neither the 0.5 mM/kg aspirin group or 35 μM/kg luteolin group prolonged
- tail bleeding time [2]: significantly prolonged

SMILES: c1ccc(Cn2nnc3c(Sc4nc5ccccc5o4)ncnc32)cc1 [VAS2870, reference compound]
- NOXs activity [3]: significantly decreased

SMILES: COc1ccc(-c2cc3nccn3c(Nc3ncccc3C(N)=O)n2)cc1OC [BAY61-3606, reference compound]
- effect on platelet ROS release ([4]; collagen (10 μg/mL)-induced): decreasing levels
- effect on platelet ROS release ([4]; convulxin (5 ng/mL)-induced): decreased

From publication PMC10644720 (Frontiers in Pharmacology, 2023)
